Reference: patent US8575340B2, “Purine derivatives and their pharmaceutical uses” (GlaxoSmithKline LLC, priority 2010, dated 2013)

Assays:
Assay type in all cases: cell-based
Interferon-α = assay: Induction of Interferon-α using cryopreserved human PBMCs; conditions: PBMC, 24 hours incubation, normalised to 1 μM resiquimod and DMSO, read-out: mean pEC50 for induction of Interferon-α (converted)
Protocol: Assay for the Induction of Interferon-α using Cryopreserved Human Peripheral Blood Mononuclear Cells (PBMCs)
Compounds were dissolved in DMSO. Serial 2-fold dilutions with DMSO were prepared and 0.25 μL dispensed into 384-well clear Greiner polypropylene plates.
Blood samples of up to 200 mL were obtained from healthy human donors. Whole blood in 25 mL volumes was overlaid onto 15 mL Ficoll gradients in Leucosep tubes, and centrifuged at 1000 g for 20 minutes. Cells in the band at the plasma/histopaque interface were carefully removed and washed twice with PBS (centrifuged at 400 g for 5 min to harvest). The final pellet was resuspended in freezing medium (90% Heat-inactivated serum, 10% DMSO) to a cell concentration of 4×10^7 cells/mL. The resuspended cells were then cryopreserved (frozen) using a rate controlled freezer, and stored at −140° C. for up to 4 months.
Incubation and Assay for Interferon-α
Immediately prior to assay, vials of cryopreserved (frozen) PBMCs were thawed rapidly in a water bath at 37° C. A 1:10 dilution of the cells in trypan blue was prepared and counted. The PBMCs were then diluted in growth media [RPMI 1640 containing 10% fetal calf serum (invitrogen), Penicillin+[…] (Gibco cat. #25030-024, 1:50), L-Glutamine 2 mM, and 1000 units/mL recombinant human IFN-gamma (Preprotech catalogue #300-02)] to a density of 1×10^6 cells/mL, and 50 uL/well dispensed to 384-well clear Greiner polypropylene plates containing 0.25 μL DMSO or test compound in 0.25 μL DMSO. […] Plates were incubated for 24 hours at 37° C. in 5% CO2.
A multi-isoform immunoassay was used to quantify IFN-α in PBMC supernatants. Rabbit polyclonal antibody against human IFN-α (catalogue number 31101, Stratech Scientific) was diluted 1:10000 in assay buffer (RPMI 1640 containing 10% fetal calf serum, Invitrogen) and 20 μL was added to each well of an MSD (Meso-Scale Discovery) single small-spot 384-well GAR (goat anti-rabbit antibody coated) plate. The plate was incubated for 1 hour at room temperature with vigorous shaking. Following three washes with PBS, 20 μL of cell supernatant were added to each well of the plate. The plate was then incubated for 1 hour at room temperature with vigorous shaking. A pair of monoclonal antibodies to IFN-α (catalogue numbers 21100 and 21112, Stratech Scientific) were labelled with sulfo-TAG (MSD), diluted 1:1000 in assay buffer and 20 μL added to each well of the plate. The plate was further incubated for 1 hour at room temperature with vigorous shaking. Following three washes with PBS, 30 μL of ×2 T buffer (MSD) was added to each well and the plate was read on an MSD Sector 6000 plate reader.
Data were normalised to internal plate controls of 1 μM resiquimod (n=16) and DMSO (n=16). pEC50 values were derived by 4-parameter curve fit with IRLS in ActivityBase, from 11-point, two-fold serial dilution of test compounds.

TNF-α = assay: Induction of TNF-α using fresh human PBMCs; conditions: PBMC, two donors, 24 hours incubation, percentage of 2 μM resiquimod control, read-out: pEC50 for induction of TNF-α (converted)
Protocol: (§1) Assay for the Induction of Interferon-α and TNF-α using Fresh Human Peripheral Blood Mononuclear Cells (PBMCs)
(§2) Compounds were dissolved and serially diluted in DMSO to give 100× the required concentration range using a Biomek 2000. 1 μL of test compound was transferred into 96-well tissue culture plates using a Biomek FX. Each compound was assayed in duplicate for each donor. Each plate contained a dilution series of the TLR7/8 agonist resiquimod as standard and Column 11 contained 1 μL of 200 μM resiquimod (giving a 2 μM final concentration, used to define the approximate maximal response to resiquimod).
(§3) Blood samples from two human donors were collected into sodium heparin (10 U/mL). 25 mL volumes of whole blood were overlaid onto 15 mL Histopaque in Leucosep tubes which were centrifuged at 800 g for 20 min and the band at the plasma/histopaque interface carefully removed. The collected cells were centrifuged at 2500 rpm for 10 min and the pellet resuspended in 10 mL of media (RPMI 1640 (Low endotoxin) supplemented with 10% v/v foetal calf serum (FCS, low endotoxin) 100 U/mL penicillin G, 100 μg/mL streptomycin, 10 mM L-glutamine and 1× non-essential amino acids). A 1:20 dilution of the cells was prepared using trypan blue and the cells counted using a haemocytometer. The PBMCs were diluted to give a final concentration of 2×10^6/mL and 100 μL of this cells suspension was added to wells containing 1 μL of diluted test compound.
(§4) Incubation and Assays for Interferon-α and TNF-α
(§5) The cell preparations were incubated for 24 hours (37° C., 95% air, 5% CO2) after which a sample of the supernatant was removed using the Biomek FX and assayed for both IFN-α and TNF-α using the MSD (Mesoscale Discovery) electrochemiluminescence assay platform. The IFN-α assay was carried out similarly to that described above. […]
(§6) Cytokine released was expressed as a percentage of the 2 μM resiquimod control (column 11). This percentage was plotted against compound concentration and the pEC50 for the response determined by non-linear least squares curve fitting. […]

IFN-α = assay: Induction of Interferon-α using fresh human PBMCs; conditions: PBMC, two donors, 24 hours incubation, percentage of 2 μM resiquimod control, read-out: pEC50 for induction of IFN-α (converted)
Protocol: as §1, §2, §3, §4, §5, §6

Structure (SMILES)	EC50 (Interferon-α) [nM]	EC50 (TNF-α) [nM]	EC50 (IFN-α) [nM]
CCCCOc1nc(N)c2[nH]c(=O)n(CCCCC3CCN(CCO)CC3)c2n1 [Example 9, 6-Amino-2-(butyloxy)-9-{4-[1-(2-hydroxyethyl)-4-piperidinyl]butyl}-7,9-dihydro-8H-purin-8-one]	< 1580	–	–
CCCCOc1nc(N)c2[nH]c(=O)n(CCCN3CCN(CCO)CC3)c2n1 [Example 11, 6-Amino-2-(butyloxy)-9-{3-[4-(2-hydroxyethyl)-1-piperazinyl]propyl}-7,9-dihydro-8H-purin-8-one]	< 1580	–	–
CCCCOc1nc(N)c2[nH]c(=O)n(CCCCCN3CCN(CCO)CC3)c2n1 [Example 15, 6-Amino-2-(butyloxy)-9-{5-[4-(2-hydroxyethyl)-1-piperazinyl]pentyl}-7,9-dihydro-8H-purin-8-one]	< 1580	–	–
CCCCOc1nc(N)c2[nH]c(=O)n(CCC3CCCN(CCO)C3)c2n1 (centres unmarked) [Example 3, 6-Amino-2-(butyloxy)-9-{2-[1-(2-hydroxyethyl)-3-piperidinyl]ethyl}-7,9-dihydro-8H-purin-8-one]	< 1580	–	–
CCCCOc1nc(N)c2[nH]c(=O)n(CCCCCN3CCN(CCOCC)CC3)c2n1 [Example 17, 6-Amino-2-(butyloxy)-9-(5-{4-[2-(ethyloxy)ethyl]-1-piperazinyl}pentyl)-7,9-dihydro-8H-purin-8-one]	< 1580	5010	15.8
CCCCOc1nc(N)c2[nH]c(=O)n(CCCCC3CCCN(CCO)C3)c2n1 (centres unmarked) [Example 5, 6-Amino-2-(butyloxy)-9-{4-[1-(2-hydroxyethyl)-3-piperidinyl]butyl}-7,9-dihydro-8H-purin-8-one]	< 1580	–	–
CCCCOc1nc(N)c2[nH]c(=O)n(CCCC3CCCCN3CCO)c2n1 (centres unmarked) [Example 1, 6-Amino-2-(butyloxy)-9-[3-[1-(2-hydroxyethyl)-2-piperidinyl]propyl]-7,9-dihydro-8H-purin-8-one]	< 1580	–	–
CCCCOc1nc(N)c2[nH]c(=O)n(CCC3CCN(CCO)CC3)c2n1 [Example 7, 6-Amino-2-(butyloxy)-9-{2-[1-(2-hydroxyethyl)-4-piperidinyl]ethyl}-7,9-dihydro-8H-purin-8-one]	< 1580	–	–
CCCCOc1nc(N)c2[nH]c(=O)n(CCCC3CCCN(CCO)C3)c2n1 (centres unmarked) [Example 4, 6-Amino-2-(butyloxy)-9-{3-[1-(2-hydroxyethyl)-3-piperidinyl]propyl}-7,9-dihydro-8H-purin-8-one]	< 1580	–	–
CCCCOc1nc(N)c2[nH]c(=O)n(CCCC3CCN(CCO)CC3)c2n1 [Example 8, 6-Amino-2-(butyloxy)-9-{3-[1-(2-hydroxyethyl)-4-piperidinyl]propyl}-7,9-dihydro-8H-purin-8-one]	< 1580	–	–
CCCCNc1nc(N)c2[nH]c(=O)n(CCCN3CCN(CCO)CC3)c2n1 [Example 12, 6-Amino-2-(butylamino)-9-[3-[4-(2-hydroxyethyl)-1-piperazinyl]propyl]-7,9-dihydro-8H-purin-8-one]	< 1580	–	–
CCCCOc1nc(N)c2[nH]c(=O)n(CCCCN3CCN(CCO)CC3)c2n1 [Example 13, 6-Amino-2-(butyloxy)-9-{4-[4-(2-hydroxyethyl)-1-piperazinyl]butyl}-7,9-dihydro-8H-purin-8-one]	< 1580	–	–
CCCCOc1nc(N)c2[nH]c(=O)n(CCCCCC3CCN(CCO)CC3)c2n1 [Example 10, 6-Amino-2-(butyloxy)-9-{5-[1-(2-hydroxyethyl)-4-piperidinyl]pentyl}-7,9-dihydro-8H-purin-8-one]	< 1580	3160	0.501
CCCCNc1nc(N)c2[nH]c(=O)n(CCCCN3CCN(CCO)CC3)c2n1 [Example 14, 6-Amino-2-(butylamino)-9-{4-[4-(2-hydroxyethyl)-1-piperazinyl]butyl}-7,9-dihydro-8H-purin-8-one]	< 1580	–	–
CCCCOc1nc(N)c2[nH]c(=O)n(CCCCCN3CCN(CCOC)CC3)c2n1 [Example 16, 6-Amino-2-(butyloxy)-9-(5-{4-[2-(methyloxy)ethyl]-1-piperazinyl}pentyl)-7,9-dihydro-8H-purin-8-one]	< 1580	–	–
CCCCOc1nc(N)c2[nH]c(=O)n(CC3CCN(CCO)CC3)c2n1 [Example 6, 6-Amino-2-(butyloxy)-9-{[1-(2-hydroxyethyl)-4-piperidinyl]methyl}-7,9-dihydro-8H-purin-8-one]	< 1580	–	–
CCCCOc1nc(N)c2[nH]c(=O)n(CC3CCCN(CCO)C3)c2n1 (centres unmarked) [Example 2, 6-Amino-2-(butyloxy)-9-{[1-(2-hydroxyethyl)-3-piperidinyl]methyl}-7,9-dihydro-8H-purin-8-one]	< 1580	15800	63.1
